Experimental data published in paper PMC6436930 (Molecular Cell, 2019).

Target: MbcT (Rv1989c) (Mycobacterium tuberculosis, UniProt P9WLP9)
Sequence (P9WLP9 whole entry): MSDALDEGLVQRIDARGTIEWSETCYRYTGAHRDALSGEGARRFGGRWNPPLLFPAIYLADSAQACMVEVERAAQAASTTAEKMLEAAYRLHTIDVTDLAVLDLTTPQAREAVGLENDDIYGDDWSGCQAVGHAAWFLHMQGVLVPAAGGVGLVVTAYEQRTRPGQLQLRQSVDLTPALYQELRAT

Question: For NC(=O)c1ccc[n+]([C@@H]2O[C@H](COP(=O)(O)OP(=O)(O)OC[C@H]3O[C@@H](n4cnc5c(N)ncnc54)[C@H](O)[C@@H]3O)[C@@H](O)[C@H]2O)c1 [NAD^+], which Km is on record?
Answer: The Km was 110 ± 8 µM.
